How the values were obtained:
[1] = tested on: Beet Armyworm (Spodoptera exigua, LAPHEG); assay: Bioassays on Beet Armyworm (BAW), 128-well diet tray assay; type: in vivo; settings: Spodoptera exigua; Table ABC: Biological Results; species BAW; read-out: BAW
In short: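 Second-instar larvae, one to five per well, were placed on artificial diet surface-treated with 50 μg/cm^2 compound in 90:10 acetone-water, eight wells per treatment. Trays were held 5–7 days at 25 °C, 14:10 light-dark. Percent mortality per well was averaged over eight wells.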

[2] = tested on: Cabbage Looper (Trichoplusia ni, TRIPNI); assay: Bioassays on Cabbage Looper (CL), 128-well diet tray assay; type: in vivo; settings: Trichoplusia ni; Table ABC: Biological Results; species CL; read-out: CL
In short: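 Percent mortality, averaged across eight replicate wells, after second-instar larvae (1–5 per well) fed for five to seven days on diet dosed at 50 μg/cm^2. Compound was applied in acetone-water 90:10 and dried; trays kept vented at 25° C under 14:10 photoperiod.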

SMILES | pest or weed control at 50 µg/cm2 [1] | pest or weed control at 50 µg/cm2 [2]
CC(=O)Nc1ccc(NC(=O)c2cc(NC(=O)[C@H]3[C@H](c4ccc(F)c(Cl)c4)C3(Cl)Cl)cc(F)c2F)cc1 (relative stereo) [F1210, trans-N-(4-Acetamidophenyl)-5-(2,2-dichloro-3-(3-chloro-4-fluorophenyl)cyclopropane-1-carboxamido)-2,3-difluorobenzamide] | 50 to 100% | 50 to 100%
CC(C)(C)OC(=O)N(C(=O)OC(C)(C)C)c1c(F)ccc(NC(=O)c2cc(NC(=O)[C@H]3[C@H](c4ccc(F)c(Cl)c4)C3(Cl)Cl)cc(F)c2F)c1F (relative stereo) [F1211, trans-tert-Butyl-N-tert-butoxycarbonyl-N-[3-[[5-[[2,2-dichloro-3-(3-chloro-4-fluorophenyl)cyclopropanecarbonyl]amino]-2,3-difluorobenzoyl]amino]-2,6-difluorophenyl]carbamate] | 50 to 100% | 50 to 100%
Cc1cc(NC(=O)[C@H]2[C@H](c3ccc(F)c(Cl)c3)C2(Cl)Cl)cc(C(=O)Nc2ccc(F)c(N)c2F)c1Cl (relative stereo) [F1222, trans-N-(3-Amino-2,4-difluorophenyl)-2-chloro-5-(2,2-dichloro-3-(3-chloro-4-fluorophenyl)cyclopropane-1-carboxamido)-3-methylbenzamide] | 50 to 100% | 50 to 100%
Cc1c(Cl)cc(NC(=O)[C@H]2[C@H](c3ccc(F)c(Cl)c3)C2(Cl)Cl)cc1C(=O)Nc1ccc(F)c(N)c1F (relative stereo) [F1223, trans-N-(3-Amino-2,4-difluorophenyl)-3-chloro-5-(2,2-dichloro-3-(3-chloro-4-fluorophenyl)cyclopropane-1-carboxamido)-2-methylbenzamide] | 50 to 100% | 50 to 100%
Cc1cc(O)ccc1NC(=O)c1cc(NC(=O)[C@H]2[C@H](c3cc(Cl)cc(Cl)c3)C2(Cl)Cl)ccc1Cl (relative stereo) [F1224, trans-2-chloro-5-(2,2-dichloro-3-(3,5-dichlorophenyl)cyclopropane-1-carboxamido)-N-(4-hydroxy-2-methylphenyl)benzamide] | 50 to 100% | 50 to 100%
Nc1c(F)ccc(NC(=O)c2cc(NC(=O)[C@H]3[C@H](c4ccc(F)c(Cl)c4)C3(Cl)Cl)cc(C(F)(F)F)c2Cl)c1F (relative stereo) [F1225, trans-N-(3-Amino-2,4-difluorophenyl)-2-chloro-5-(2,2-dichloro-3-(3-chloro-4-fluorophenyl)cyclopropane-1-carboxamido)-3-(trifluoromethyl)benzamide] | 50 to 100% | 50 to 100%
COc1c(F)cc(NC(=O)[C@H]2[C@H](c3ccc(F)c(Cl)c3)C2(Cl)Cl)cc1C(=O)Nc1ccc(F)c(N)c1F (relative stereo) [F1226, trans-N-(3-Amino-2,4-difluorophenyl)-5-(2,2-dichloro-3-(3-chloro-4-fluoro-phenyl)cyclopropane-1-carboxamido)-3-fluoro-2-methoxybenzamide] | 50 to 100% | 50 to 100%
COc1c(Cl)cc(NC(=O)[C@H]2[C@H](c3ccc(F)c(Cl)c3)C2(Cl)Cl)cc1C(=O)Nc1ccc(F)cc1 (relative stereo) [F1235, trans-3-Chloro-5-(2,2-dichloro-3-(3-chloro-4-fluorophenyl)cyclopropane-1-carboxamido)-N-(4-fluorophenyl)-2-methoxybenzamide] | 50 to 100% | 50 to 100%
COc1c(Cl)cc(NC(=O)[C@H]2[C@H](c3ccc(F)c(Cl)c3)C2(Cl)Cl)cc1C(=O)Nc1ccc(F)cc1F (relative stereo) [F1236, trans-3-Chloro-5-(2,2-dichloro-3-(3-chloro-4-fluorophenyl)cyclopropane-1-carboxamido)-N-(2,4-difluorophenyl)-2-methoxybenzamide] | 50 to 100% | 50 to 100%
Cc1cc(NC(=O)c2cc(NC(=O)[C@H]3[C@H](c4cc(Cl)cc(Cl)c4)C3(Cl)Cl)ccc2Cl)c(C)cc1N (relative stereo) [F1257, trans-N-(4-Amino-2,5-dimethylphenyl)-2-chloro-5-(2,2-dichloro-3-(3,5-dichlorophenyl)cyclopropane-1-carboxamido)benzamide] | 50 to 100% | 50 to 100%
Nc1c(F)ccc(NC(=O)c2cc(NC(=O)[C@H]3[C@@H](c4cc(Cl)cc(S(F)(F)(F)(F)F)c4)C3(Cl)Cl)ccc2Cl)c1F (relative stereo) [F1260, cis-N-(3-Amino-2,4-difluorophenyl)-2-chloro-5-(2,2-dichloro-3-(3-chloro-5-(pentafluoro-λ^6-sulfanyl)phenyl)cyclopropane-1-carboxamido)benzamide] | 50 to 100% | 50 to 100%
COC(=O)c1c(F)ccc(NC(=O)c2cc(NC(=O)[C@H]3[C@H](c4cc(Cl)cc(Cl)c4)C3(Cl)Cl)ccc2Cl)c1F (relative stereo) [F1265, trans-Methyl 3-(2-chloro-5-(2,2-dichloro-3-(3,5-dichlorophenyl)cyclopropane-1-carboxamido)benzamido)-2,6-difluorobenzoate] | 50 to 100% | 50 to 100%
Cc1c(F)cc(NC(=O)[C@H]2[C@H](c3ccc(F)c(Cl)c3)C2(Cl)Cl)cc1C(=O)Nc1ccc(F)c(N)c1F (relative stereo) [F1286, trans-N-(3-Amino-2,4-difluorophenyl)-5-(2,2-dichloro-3-(3-chloro-4-fluorophenyl)cyclopropane-1-carboxamido)-3-fluoro-2-methylbenzamide] | 50 to 100% | 50 to 100%
O=C(Nc1ccc(F)c(NC(=O)C(F)F)c1F)c1cc(NC(=O)[C@H]2[C@H](c3cccc(S(F)(F)(F)(F)F)c3)C2(Cl)Cl)ccc1Cl (relative stereo) [F1293, trans-2-Chloro-5-(2,2-dichloro-3-(3-(pentafluoro-λ^6-sulfanyl)phenyl)cyclopropane-1-carboxamido)-N-(3-(2,2-difluoroacetamido)-2,4-difluorophenyl)benzamide] | 50 to 100% | 50 to 100%
O=C(Nc1ccc(Br)cc1F)c1cc(NC(=O)[C@H]2[C@H](c3cc(Cl)cc(Cl)c3)C2(Cl)Cl)ccc1Cl (relative stereo) [F1306, trans-N-(4-Bromo-2-fluorophenyl)-2-chloro-5-(2,2-dichloro-3-(3,5-dichlorophenyl)cyclopropane-1-carboxamido)benzamide] | 50 to 100% | 50 to 100%
O=C(Nc1ccc(F)c(Br)c1F)c1cc(NC(=O)[C@H]2[C@H](c3cc(Cl)cc(Cl)c3)C2(Cl)Cl)ccc1Cl (relative stereo) [F1307, trans-N-(3-Bromo-2,4-difluorophenyl)-2-chloro-5-(2,2-dichloro-3-(3,5-dichlorophenyl)cyclopropane-1-carboxamido)benzamide] | 50 to 100% | 50 to 100%
O=C(Nc1cc(Br)c(F)cc1F)c1cc(NC(=O)[C@H]2[C@H](c3cc(Cl)cc(Cl)c3)C2(Cl)Cl)ccc1Cl (relative stereo) [F1308, trans-N-(5-Bromo-2,4-difluorophenyl)-2-chloro-5-(2,2-dichloro-3-(3,5-dichlorophenyl)cyclopropane-1-carboxamido)benzamide] | 50 to 100% | 50 to 100%
C=C(F)c1cc(F)cc(F)c1NC(=O)c1cc(NC(=O)[C@H]2[C@H](c3cc(Cl)cc(Cl)c3)C2(Cl)Cl)ccc1Cl (relative stereo) [F1322, trans-2-Chloro-5-(2,2-dichloro-3-(3,5-dichlorophenyl)cyclopropane-1-carboxamido)-N-(2,4-difluoro-6-(1-fluorovinyl)phenyl)benzamide] | 50 to 100% | 50 to 100%
O=C(Nc1ccc(F)c(NC(=O)C(F)F)c1F)c1cc(NC(=O)[C@H]2[C@H](c3cc(Cl)c(F)c(Cl)c3)C2(Cl)Cl)ccc1Cl (relative stereo) [F1331, trans-2-Chloro-5-(2,2-dichloro-3-(3,5-dichloro-4-fluorophenyl)cyclopropane-1-carboxamido)-N-(3-(2,2-difluoroacetamido)-2,4-difluorophenyl)benzamide] | 50 to 100% | 50 to 100%
O=C(Nc1ccc(F)c(NC(=O)C(F)(F)F)c1F)c1cc(NC(=O)[C@H]2[C@H](c3cc(Cl)c(F)c(Cl)c3)C2(Cl)Cl)ccc1Cl (relative stereo) [F1332, trans-2-Chloro-5-(2,2-dichloro-3-(3,5-dichloro-4-fluorophenyl)cyclopropane-1-carboxamido)-N-(2,4-difluoro-3-(2,2,2-trifluoroacetamido)phenyl)benzamide] | 50 to 100% | 50 to 100%
Cc1cc(NCc2ccc(NC(=O)OC(C)(C)C)cc2)ccc1NC(=O)c1cc(NC(=O)[C@H]2[C@H](c3cc(Cl)cc(Cl)c3)C2(Cl)Cl)ccc1Cl (relative stereo) [F1348, trans-tert-Butyl (4-(((4-(2-chloro-5-(2,2-dichloro-3-(3,5-dichlorophenyl)cyclopropane-1-carboxamido)benzamido)-3-methylphenyl)amino)methyl)phenyl)carbamate] | 50 to 100% | 50 to 100%
O=C(Nc1ccc(Cl)c(NC(=O)C(F)(F)F)c1)c1cc(NC(=O)[C@H]2[C@H](c3ccc(F)c(Cl)c3)C2(Cl)Cl)ccc1Cl (relative stereo) [F1366, trans-2-Chloro-N-(4-chloro-3-(2,2,2-trifluoroacetamido)phenyl)-5-(2,2-dichloro-3-(3-chloro-4-fluorophenyl)cyclopropane-1-carboxamido)benzamide] | 50 to 100% | 50 to 100%
